Experimental data reported in US10610522B2, “Methods for retreating irritable bowel syndrome (IBS)” (Salix Pharmaceuticals, Inc., priority 2014, dated 2020).

Key:
[1] = test system: C. difficile infection (CDI); experiment: Double-blind non-inferiority trial rifaximin 400 mg TID vs vancomycin 125 mg QID, 10 days, C. difficile infection; format: in vivo, human
Method: Criteria for entry into the trial were: • Age >=18 years old; • Had acute diarrhea at screening defined as >=3 unformed stools in the last 24 hours and at least one sign of enteric infection (fever, nausea, lose of appetite, vomiting, severe abdominal pain/discomfort); and • a positive C. diff stool toxin assay Endpoint:
The primary efficacy endpoint of the study was defined as the proportion of subjects achieving clinical success. Specifically, clinical success was defined as the absence of severe abdominal pain at Test of Cure (TOC), absence of fever (<38° C.) at TOC, and <3 unformed stools for two consecutive days at TOC.
Clinical success was defined as the: Absence of severe abdominal pain at TOC, absence of fever (<38° C.) at TOC, and <3 unformed stools for two consecutive days at TOC. Test of cure defined as Day 14+/−1 day.
Recurrence was defined to be a diarrhea and a positive C. diff stool toxin assay that occurred after initial clinical success.
Global cure of diarrhea was defined as subjects who were cured of diarrhea at TOC without recurrence at follow up.
Subjects who completed the study without achieving clinical success were censored at Day 14

[2] = biological target: cytochrome P450 2C19 (Homo sapiens, UniProt P33261); experiment: In vitro cytochrome P450 inhibition; format: biochemical; conditions: 2 to 200 ng/mL
Sequence of cytochrome P450 2C19 (P33261 whole entry): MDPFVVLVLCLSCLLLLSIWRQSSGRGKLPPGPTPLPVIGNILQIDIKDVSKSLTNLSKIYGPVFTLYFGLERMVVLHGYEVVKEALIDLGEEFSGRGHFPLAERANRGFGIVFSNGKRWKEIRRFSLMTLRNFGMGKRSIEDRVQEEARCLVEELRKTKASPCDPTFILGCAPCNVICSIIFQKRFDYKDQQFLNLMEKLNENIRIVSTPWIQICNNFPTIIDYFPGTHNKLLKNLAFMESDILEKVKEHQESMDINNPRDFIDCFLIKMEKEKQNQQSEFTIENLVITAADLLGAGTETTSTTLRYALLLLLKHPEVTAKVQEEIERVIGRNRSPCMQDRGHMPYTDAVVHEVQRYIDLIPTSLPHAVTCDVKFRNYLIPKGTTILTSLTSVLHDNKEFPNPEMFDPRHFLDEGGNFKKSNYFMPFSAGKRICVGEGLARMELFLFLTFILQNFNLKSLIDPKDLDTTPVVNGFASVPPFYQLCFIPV

[3] = biological target: CYP3A4 (Homo sapiens, UniProt P08684); experiment: In vitro cytochrome P450 inhibition; format: biochemical; conditions: 2 to 200 ng/mL
Sequence of CYP3A4 (Homo sapiens, UniProt P08684) (P08684 whole entry): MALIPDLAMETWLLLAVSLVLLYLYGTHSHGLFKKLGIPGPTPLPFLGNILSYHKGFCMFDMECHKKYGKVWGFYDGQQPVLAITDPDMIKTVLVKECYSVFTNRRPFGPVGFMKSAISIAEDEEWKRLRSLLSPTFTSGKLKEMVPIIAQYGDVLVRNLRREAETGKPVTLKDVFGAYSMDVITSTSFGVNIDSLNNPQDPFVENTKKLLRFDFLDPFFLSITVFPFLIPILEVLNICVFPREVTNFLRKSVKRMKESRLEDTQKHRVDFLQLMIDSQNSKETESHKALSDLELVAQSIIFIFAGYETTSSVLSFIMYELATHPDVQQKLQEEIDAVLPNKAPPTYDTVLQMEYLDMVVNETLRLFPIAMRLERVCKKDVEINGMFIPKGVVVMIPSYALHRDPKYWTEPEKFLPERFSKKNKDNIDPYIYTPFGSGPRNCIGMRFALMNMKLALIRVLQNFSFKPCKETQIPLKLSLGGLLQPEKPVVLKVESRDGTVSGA

[4] = test system: CYP3A4; experiment: CYP3A4 induction study
[5] = test system: rat fetuses; experiment: Developmental toxicity in pregnant rats; format: in vivo
[6] = test system: IBS-D; experiment: Adverse reactions in three phase 3 placebo-controlled IBS-D studies, rifaximin 550 mg TID; format: in vivo, human
From the text: In two studies, 624 patients received only one 14-day treatment.
(These include adverse reactions that may be attributable to the underlying disease.)
The following includes adverse reactions regardless of causal relationship to drug exposure. Gastrointestinal Disorders: Abdominal distension, abdominal tenderness, constipation, diarrhea, dyspepsia, flatulence, vomiting

[7] = Rifaximin N = 117, Vancomycin N = 115
[8] = Rifaximin vs Vancomycin, at TOC
[9] = Rifaximin vs Vancomycin, treatment period
[10] = adjusting for concomitant medication usage, Rifaximin N = 109, Vancomycin N = 112
[11] = adjusting for concomitant medication usage, Rifaximin N = 117, Vancomycin N = 115
[12] = adjusting for concomitant medication usage, Rifaximin vs Vancomycin
[13] = after initial clinical success, Rifaximin N = 67, Vancomycin N = 73
[14] = all subjects, Rifaximin N = 117, Vancomycin N = 115
[15] = at TOC, Rifaximin N = 108, Vancomycin N = 111
[16] = at TOC, Rifaximin N = 117, Vancomycin N = 115
[17] = cured at TOC without recurrence at follow up, Rifaximin N = 117, Vancomycin N = 115
[18] = subgroup Age <65, at TOC, Rifaximin N = 69, Vancomycin N = 62
[19] = subgroup Age >=65, at TOC, Rifaximin N = 39, Vancomycin N = 49
[20] = subgroup Female, at TOC, Rifaximin N = 68, Vancomycin N = 64
[21] = subgroup Male, at TOC, Rifaximin N = 40, Vancomycin N = 47
[22] = 1650 mg/day, N = 952, three phase 3 placebo-controlled studies

CO[C@H]1/C=C/O[C@@]2(C)Oc3c(C)c(O)c4c(O)c(c5c(nc6cc(C)ccn65)c4c3C2=O)NC(=O)/C(C)=C\C=C\[C@H](C)[C@H](O)[C@@H](C)[C@@H](O)[C@@H](C)[C@H](OC(C)=O)[C@@H]1C [Rifaximin, (2S,16Z,18E,20S,21S,22R,23R,24R,25S,26S,27S,28E)-5,6,21,23,25 Pentahydroxy-27-methoxy-2,4,11,16,20,22,24,26-octamethyl-2,7-(epoxypentadeca-(1,11,13)trienimino) benzofuro (4,5-e) pyrido(1,2-a) benzimidazole-1,15(2H)-dione,25-acetate]
Continuing Illness No: % of subjects [1, 7]: 77% | Continuing Illness No: number of subjects [1, 7]: 90 | Continuing Illness Yes: % of subjects [1, 7]: 23% | Continuing Illness Yes: number of subjects [1, 7]: 27 | Global Cure of Diarrhea No: % of subjects [1, 7]: 29% | Global Cure of Diarrhea No: number of subjects [1, 7]: 34 | Recurrence Rate per Person-Year Exposure [1, 7]: 0.613 | Continuing Illness: Treatment Difference ([1]; Rifaximin vs Vancomycin): −9.2% | Global Cure of Diarrhea: Treatment Difference ([1]; Rifaximin vs Vancomycin): −3.0% | Recurrence of CDI: Treatment Difference ([1]; Rifaximin vs Vancomycin, after initial clinical success): 4.7% | Clinical Success: Treatment Difference [1, 8]: −6.2% | Diarrhea: Treatment Difference [1, 8]: −1.5% | Fever: Treatment Difference [1, 8]: −7.5% | Severe Abdominal Pain/Discomfort: Treatment Difference [1, 8]: −11.5% | Adjusted mean number of unformed stools-ANOVA: Treatment Difference (95% CI) [1, 9]: 0.46 (−0.08, 1.00) | Overall treatment difference in number of unformed stools-Mixed Model: Treatment Difference (95% CI) [1, 9]: 0.32 (−0.08, 0.72) | Diarrhea No: % of subjects [1, 10]: 65% | Diarrhea No: number of subjects [1, 10]: 71 | Diarrhea Yes: % of subjects [1, 10]: 35% | Diarrhea Yes: number of subjects [1, 10]: 38 | Clinical Success No: % of subjects [1, 11]: 50% | Clinical Success No: number of subjects [1, 11]: 59 | Clinical Success Yes: % of subjects [1, 11]: 50% | Clinical Success Yes: number of subjects [1, 11]: 58 | Clinical Success: Treatment Difference [1, 12]: −10.4% | Diarrhea: Treatment Difference [1, 12]: −8.1% | No Recurrence of CDI: % of subjects [1, 13]: 91% | No Recurrence of CDI: number of subjects [1, 13]: 61 | Recurrence of CDI: % of subjects [1, 13]: 9% | Recurrence of CDI: number of subjects [1, 13]: 6 | Recurrence No: % of subjects [1, 14]: 95% | Recurrence No: number of subjects [1, 14]: 111 | Recurrence Yes: % of subjects [1, 14]: 5% | Recurrence Yes: number of subjects [1, 14]: 6 | Diarrhea No: % of subjects [1, 15]: 80% | Diarrhea No: number of subjects [1, 15]: 86 | Diarrhea Yes: % of subjects [1, 15]: 20% | Diarrhea Yes: number of subjects [1, 15]: 22 | Fever No: % of subjects [1, 15]: 91% | Fever No: number of subjects [1, 15]: 98 | Fever Yes: % of subjects [1, 15]: 9% | Fever Yes: number of subjects [1, 15]: 10 | Severe Abdominal Pain/Discomfort No: % of subjects [1, 15]: 74% | Severe Abdominal Pain/Discomfort No: number of subjects [1, 15]: 80 | Severe Abdominal Pain/Discomfort Yes: % of subjects [1, 15]: 26% | Severe Abdominal Pain/Discomfort Yes: number of subjects [1, 15]: 28 | Clinical Success No: % of subjects [1, 16]: 43% | Clinical Success No: number of subjects [1, 16]: 50 | Clinical Success Yes: % of subjects [1, 16]: 57% | Clinical Success Yes: number of subjects [1, 16]: 67 | Global Cure of Diarrhea Yes: % of subjects [1, 17]: 71% | Global Cure of Diarrhea Yes: number of subjects [1, 17]: 83 | Adjusted mean number of unformed stools-ANOVA ([1]; during the treatment period, Rifaximin N = 117, Vancomycin N = 115): 2.36 | Diarrhea: % of subjects [1, 18]: 23% | Diarrhea: number of subjects [1, 18]: 16 | No Diarrhea: % of subjects [1, 18]: 77% | No Diarrhea: number of subjects [1, 18]: 53 | Diarrhea: Treatment Difference ([1]; subgroup Age <65, at TOC, Rifaximin vs Vancomycin): −3.8% | Diarrhea: % of subjects [1, 19]: 15% | Diarrhea: number of subjects [1, 19]: 6 | No Diarrhea: % of subjects [1, 19]: 85% | No Diarrhea: number of subjects [1, 19]: 33 | Diarrhea: Treatment Difference ([1]; subgroup Age >=65, at TOC, Rifaximin vs Vancomycin): 3.0% | Diarrhea: % of subjects [1, 20]: 21% | Diarrhea: number of subjects [1, 20]: 14 | No Diarrhea: % of subjects [1, 20]: 79% | No Diarrhea: number of subjects [1, 20]: 54 | Diarrhea: Treatment Difference ([1]; subgroup Female, at TOC, Rifaximin vs Vancomycin): −3.4% | Diarrhea: % of subjects [1, 21]: 20% | Diarrhea: number of subjects [1, 21]: 8 | No Diarrhea: % of subjects [1, 21]: 80% | No Diarrhea: number of subjects [1, 21]: 32 | Diarrhea: Treatment Difference ([1]; subgroup Male, at TOC, Rifaximin vs Vancomycin): 1.3% | Inhibition of cytochrome P450 2C19 [2]: does not inhibit | Inhibition of CYP3A4 [3]: does not inhibit | CYP3A4 induction [4]: induces CYP3A4 | Fetal malformations ([5]; pregnant rats, dose levels that caused reduced body weight gain): eye malformations | Post-natal developmental effects in rat pups ([5]; pregnant/lactating rats dosed from gestation to Day 20 post-partum, highest dose): not observed | Most common adverse reactions in IBS-D (≥2%) ([6]; 550 mg TID): nausea and abdominal pain | Adverse reaction Abdominal Pain: % of Patients [6, 22]: 2% | Adverse reaction Abdominal Pain: Number of Patients [6, 22]: 18 | Adverse reaction Nausea: % of Patients [6, 22]: 2% | Adverse reaction Nausea: Number of Patients [6, 22]: 22
